Source: the supplement of paper PMC13380429

Columns and labels:
Details in all cases: 72 h
Caco-2 [1] = test: cell viability relative to DMSO; higher = less toxic
Calu-3 [2] = test: as above
HepG2 [3] = test: as above
U2OS [4] = test: as above
Vero E6 [5] = test: as above
Calu-3 [6] = test: relative viability EC50 (midpoint between 100% and the lowest measured viability); higher = less toxic
U2OS [7] = test: as above
Vero E6 [8] = test: as above
Caco-2 [9] = test: drug sensitivity score (DSS) for viability; higher = more toxic; extreme values may be limits of the assay
Calu-3 [10] = test: as above
HepG2 [11] = test: as above
U2OS [12] = test: as above
Vero E6 [13] = test: as above
HepG2 [14] = test: relative viability EC50 (midpoint between 100% and the lowest measured viability); higher = less toxic
Caco-2 [15] = test: as above

Compound | cell viability (Caco-2 [1]; 1 nM) [%] | cell viability (Caco-2 [1]; 10 nM) [%] | cell viability (Caco-2 [1]; 100 nM) [%] | cell viability (Caco-2 [1]; 1000 nM) [%] | cell viability (Caco-2 [1]; 10000 nM) [%] | cell viability (Calu-3 [2]; 1 nM) [%] | cell viability (Calu-3 [2]; 10 nM) [%] | cell viability (Calu-3 [2]; 100 nM) [%] | cell viability (Calu-3 [2]; 1000 nM) [%] | cell viability (Calu-3 [2]; 10000 nM) [%] | cell viability (HepG2 [3]; 1 nM) [%] | cell viability (HepG2 [3]; 10 nM) [%] | cell viability (HepG2 [3]; 100 nM) [%] | cell viability (HepG2 [3]; 1000 nM) [%] | cell viability (HepG2 [3]; 10000 nM) [%] | cell viability (U2OS [4]; 1 nM) [%] | cell viability (U2OS [4]; 10 nM) [%] | cell viability (U2OS [4]; 100 nM) [%] | cell viability (U2OS [4]; 1000 nM) [%] | cell viability (U2OS [4]; 10000 nM) [%] | cell viability (Vero E6 [5]; 1 nM) [%] | cell viability (Vero E6 [5]; 10 nM) [%] | cell viability (Vero E6 [5]; 100 nM) [%] | cell viability (Vero E6 [5]; 1000 nM) [%] | cell viability (Vero E6 [5]; 10000 nM) [%] | relative viability EC50 (Calu-3 [6]) [µM] | relative viability EC50 (U2OS [7]) [µM] | relative viability EC50 (Vero E6 [8]) [µM] | drug sensitivity score (Caco-2 [9]) | drug sensitivity score (Calu-3 [10]) | drug sensitivity score (HepG2 [11]) | drug sensitivity score (U2OS [12]) | drug sensitivity score (Vero E6 [13]) | relative viability EC50 (HepG2 [14]) [µM] | relative viability EC50 (Caco-2 [15]) [µM]
COc1ccc(-c2csc(NC(=O)[C@H]3CCCCN3S(=O)(=O)c3ccc(C)cc3)n2)cc1 [ML277] | 89.5 | 93.2 | 97.8 | 90.6 | 69.2 | 91 | 104 | 92.1 | 92.6 | 99.2 | 97.7 | 99.7 | 112 | 101 | 60.1 | 98.4 | 98.1 | 101 | 94.2 | 90.1 | 109 | 102 | 105 | 105 | 99.9 | > 10 | > 10 | > 10 | 2.6 | 0 | 1.9 | 0 | 0 |  | 
CO[C@@H](C(=O)N1Cc2[nH]nc(NC(=O)c3ccc(N4CCN(C)CC4)cc3)c2C1)c1ccccc1 [danusertib] | 94.7 | 95.4 | 94.9 | 82.9 | 71.7 | 89 | 93.8 | 77.1 | 76.9 | 52.9 | 93.4 | 95.9 | 78.3 | 55.8 | 42.6 | 99.6 | 103 | 93.9 | 74.8 | 31 | 104 | 101 | 104 | 98.6 | 84.2 |  | 1.35 | > 10 | 2.9 | 7.5 | 10.7 | 6.8 | 0.4 | 0.192 | 
CC(C)(C)C(=O)OCOC(=O)[C@@H]1N2C(=O)[C@@H](NC(=O)[C@H](N)c3ccccc3)[C@H]2SC1(C)C [pivampicillin] |  |  |  |  |  | 110 | 108 | 97.7 | 98.4 | 117 | 114 | 97.7 | 91.9 | 82 | 96.9 | 98.4 | 94 | 101 | 93.3 | 97.6 | 103 | 104 | 101 | 99.4 | 102 | > 10 | > 10 | > 10 |  | 0 | 0.2 | 0 | 0 | > 10 | 
O=C1CNC(=O)CN1 [piperazinedione] | 98.3 | 102 | 98.9 | 99.4 | 94.8 | 91.8 | 99.4 | 91.8 | 93.4 | 94 | 102 | 94.9 | 96.4 | 100 | 103 | 99 | 99 | 97.4 | 101 | 99.8 | 99.5 | 96.4 | 102 | 91.4 | 74.7 | > 10 | > 10 |  | 0 | 0 | 0 | 0 | 2.1 | > 10 | > 10
NCCc1ccccn1 [2-pyridylethylamine] | 110 | 96.4 | 107 | 101 | 108 | 98.8 | 88.4 | 93.4 | 105 | 101 | 113 | 104 | 113 | 113 | 93.6 |  |  |  |  |  | 95.2 | 105 | 105 | 102 | 96.6 | > 10 |  | > 10 | 0 | 0 | 0 |  | 0 | > 10 | > 10
N#Cc1nn(-c2c(Cl)cc(C(F)(F)F)cc2Cl)c(N)c1[S+]([O-])C(F)(F)F (configuration not stated) [fipronil] | 103 | 105 | 102 | 96.7 | 94.1 | 99.3 | 92 | 102 | 103 | 102 | 98.2 | 109 | 97.8 | 91.1 | 103 |  |  |  |  |  | 106 | 102 | 99.2 | 101 | 102 | > 10 |  | > 10 | 0 | 0 | 0 |  | 0 | > 10 | > 10
Cc1coc2c1C(=O)C(=O)c1c-2ccc2c1CCCC2(C)C [tanshinone-IIA] | 97.6 | 95.7 | 92.9 | 103 | 77 | 109 | 105 | 101 | 94.1 | 101 | 90.6 | 105 | 96.5 | 91.4 | 55.4 | 102 | 99.2 | 95.7 | 99.6 | 74.9 | 106 | 104 | 103 | 101 | 97.4 | > 10 |  | > 10 | 0.7 | 0 | 3.7 | 1 | 0 |  | > 10
